Data: US9012489B2, “Phenyl-3-aza-bicyclo[3.1.0]hex-3-yl-methanones and the use thereof as medicament” (Boehringer Ingelheim International GmbH, priority 2011, dated 2015)

Biological target: T1, GlyT1 transporter (Homo sapiens, UniProt P48067)
T1 construct: endogenously expressing the GlyT1 transporter; host or cells: SK-N-MC human neuroblastoma cells
T1 sequence (P48067 1-706): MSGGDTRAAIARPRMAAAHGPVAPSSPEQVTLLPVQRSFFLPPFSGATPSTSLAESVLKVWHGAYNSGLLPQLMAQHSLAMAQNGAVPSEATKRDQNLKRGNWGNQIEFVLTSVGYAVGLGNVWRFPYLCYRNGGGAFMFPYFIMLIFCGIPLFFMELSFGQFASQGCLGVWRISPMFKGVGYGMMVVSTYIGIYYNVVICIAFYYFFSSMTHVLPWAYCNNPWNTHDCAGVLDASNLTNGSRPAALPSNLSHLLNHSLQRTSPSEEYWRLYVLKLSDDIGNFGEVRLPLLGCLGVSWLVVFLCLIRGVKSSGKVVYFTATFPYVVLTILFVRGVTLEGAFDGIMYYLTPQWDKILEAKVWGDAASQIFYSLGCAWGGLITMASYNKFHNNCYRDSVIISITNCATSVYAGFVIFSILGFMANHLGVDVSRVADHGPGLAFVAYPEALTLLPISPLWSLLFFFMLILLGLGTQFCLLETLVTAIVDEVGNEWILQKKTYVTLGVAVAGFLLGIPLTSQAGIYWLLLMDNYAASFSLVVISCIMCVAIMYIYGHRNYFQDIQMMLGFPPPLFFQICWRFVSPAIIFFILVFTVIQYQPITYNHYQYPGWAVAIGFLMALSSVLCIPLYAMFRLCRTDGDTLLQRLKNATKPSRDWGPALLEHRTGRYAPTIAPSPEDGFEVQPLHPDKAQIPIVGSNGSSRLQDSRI
Test: GlyT1 assay: 3H-glycine uptake into SK-N-MC cells (Cytostar-T format)
Assay type: cell-based
Conditions: glycine uptake in human SK-N-MC cells endogenously expressing GlyT1; 500 nM glycine, 1% DMSO, signal recorded over 60 min
Excerpt: Cells expressing either endogenously the GlyT1 transporter like JAR cells (human placental choriocarcinoma cells; e.g. WO 2008/002583) or SK-N-MC cells (human neuroblastoma cells; Depoortere et al., 2005. Neuropsychopharmacology 30:1963-1985) or primary neurons or cells which have been transfected with a plasmid encoding the cDNA of a functional GlyT1 transporter and stably or transiently express GlyT1 (e.g. WO 2006/08200) can be used to monitor glycine uptake in cells. Different protocols for determination of the glycine uptake into the cells described above can be applied in order to identify and rank compounds which interfere with glycine uptake in the selected cell.
Compounds outlined in the examples below were characterized using human SK-N-MC cells (ATCC number HTB-10) endogenously expressing the GlyT1 transporter which is responsible for the uptake of glycine into these cells and the uptake of glycine into these cells is monitored using the Cytostar-T assay format (GE Healthcare, RPNQ0162) which is based on the radioactive glycine taken up by the cells and brought into proximity with the scintillant contained within the base of the plate. The radioactive decay is converted to a light signal based on the integration of the scintillation matrix into the assay plate. The uptake is recorded as kinetic and the slope of the measured counts over time is used to calculate IC50.
In detail, SK-N-MC cells are seeded into 96-well Cytostar-T assay plates at a density of 200,000 cells/well and grown for 16-18 hours to confluence in growth medium as recommended by ATCC. Before starting the assay, cells are washed once with HBSS (Hank's buffered salt solution; Sigma, H8264) cont. 5 mM alanine (referred in here as HBSS/Ala) and afterwards the following reagents are added: • 1. 80 μl/well HBSS/Ala • 2. 20 μl/well of HBSS/Ala containing 6× the concentration of compound in 6% DMSO • 3. approx. 5-10 min incubation • 4. 20 μl/well 3 μM glycine (^3H-glycine (Perkin Elmer, NET004001MC, specific activity: 52 Ci/mmol; diluted 1:1 with unlabelled glycine) in HBSS/Ala.
In the final assay, glycine concentration is 500 nM (250 nM derived from the ^3H-glycine Perkin Elmer, 250 nM unlabelled glycine), DMSO concentration is 1%.
The assay plate is immediately after addition of the ^3H-glycine placed into a Micro-Beta Counter (Perkin Elmer) and the signal is recorded over 60 min.
To calculate uptake, the slope in the linear range of the kinetics is determined using GraphPadPrism and for the different slopes at the selected concentrations IC50 are calculated by curve fitting using the software GraphPadPrism.
Maximal glycine uptake in every experiment is determined by incubation of SK-N-MC cells with substrate but without inhibitor. Unspecific uptake of glycine by the cells is determined by incubating the cells with substrate and a reference GlyT1 inhibitor e.g. 10 μM RG-1678 (Pinard et al., 2010, J. Med. Chem. 53(12):4603-14).
Compounds are diluted from 10 mM stocks and in general, for IC50 determination 8 compound concentrations are used.

Row | Structure (SMILES) | IC50 [nM]
1 | COC1(c2nc(C34CC3CN(C(=O)c3cc(S(C)(=O)=O)ccc3O[C@@H](C)C(F)(F)F)C4)no2)CC1 (mixture of isomers) [Example 116, [5-Methanesulfonyl-2-(2,2,2-trifluoro-1-methyl-ethoxy)-phenyl]-{1-[5-(1-methoxy-cyclopropyl)-[1,2,4]oxadiazol-3-yl]-3-aza-bicyclo[3.1.0]hex-3-yl}-methanone] | 10
2 | C[C@H](Oc1ccc(S(C)(=O)=O)cc1C(=O)N1CC2CC2(c2cc(C(F)(F)F)on2)C1)C(F)(F)F (single isomer, unassigned) [Example 47, [5-Methanesulfonyl-2-(2,2,2-trifluoro-1-methyl-ethoxy)-phenyl]-[1-(5-trifluoromethyl-isoxazol-3-yl)-3-aza-bicyclo[3.1.0]hex-3-yl]-methanone] | 7
3 | Cc1nc(C23CC2CN(C(=O)c2cc(S(C)(=O)=O)ccc2O[C@H](C)C(F)(F)F)C3)no1 (single isomer, unassigned) [Example 42, [5-Methanesulfonyl-2-(2,2,2-trifluoro-1-methyl-ethoxy)-phenyl]-[1-(5-methyl-[1,2,4]oxadiazol-3-yl)-3-aza-bicyclo[3.1.0]hex-3-yl]-methanone] | 6
4 | C[C@@H](Oc1ccc(S(C)(=O)=O)cc1C(=O)N1CC2CC2(c2csc(C(F)(F)F)n2)C1)C(F)(F)F (mixture of isomers) [Example 29, [5-Methanesulfonyl-2-(2,2,2-trifluoro-1-methyl-ethoxy)-phenyl]-[1-(2-trifluoromethyl-thiazol-4-yl)-3-aza-bicyclo[3.1.0]hex-3-yl]-methanone] | 11
5 | Cc1coc(C23CC2CN(C(=O)c2cc(S(C)(=O)=O)ccc2O[C@@H](C)C(F)(F)F)C3)n1 (mixture of isomers) [Example 33, [5-Methanesulfonyl-2-(2,2,2-trifluoro-1-methyl-ethoxy)-phenyl]-[1-(4-methyl-oxazol-2-yl)-3-aza-bicyclo[3.1.0]hex-3-yl]-methanone] | 190
6 | C[C@H](Oc1ccc(S(C)(=O)=O)cc1C(=O)N1CC2CC2(c2nnc(C3(C(F)(F)F)CC3)o2)C1)C(F)(F)F (single isomer, unassigned) [Example 153, [5-Methanesulfonyl-2-(2,2,2-trifluoro-1-methyl-ethoxy)-phenyl]-{1-[5-(1-trifluoromethyl-cyclopropyl)-[1,3,4]oxadiazol-2-yl]-3-aza-bicyclo[3.1.0]hex-3-yl}-methanone] | 1200
7 | C[C@H](Oc1ccc(S(C)(=O)=O)cc1C(=O)N1CC2CC2(c2nnc(C(F)(F)F)o2)C1)C(F)(F)F (single isomer, unassigned) [Example 126, [5-Methanesulfonyl-2-(2,2,2-trifluoro-1-methyl-ethoxy)-phenyl]-[1-(5-trifluoromethyl-[1,3,4]oxadiazol-2-yl)-3-aza-bicyclo[3.1.0]hex-3-yl]-methanone] | 16
8 | CCS(=O)(=O)c1ccc(O[C@H](C)C(F)(F)F)c(C(=O)N2CC3CC3(c3noc(C(F)(F)F)n3)C2)c1 (single isomer, unassigned) [Example 94, [5-Ethanesulfonyl-2-(2,2,2-trifluoro-1-methyl-ethoxy)-phenyl]-[1-(5-trifluoromethyl-[1,2,4]oxadiazol-3-yl)-3-aza-bicyclo[3.1.0]hex-3-yl]-methanone] | 2910
9 | C[C@H](Oc1ccc(S(C)(=O)=O)cc1C(=O)N1CC2(C)CC2(c2noc(C(F)(F)F)n2)C1)C(F)(F)F (single isomer, unassigned) [Example 159, [5-Methanesulfonyl-2-(2,2,2-trifluoro-1-methyl-ethoxy)-phenyl]-[1-methyl-5-(5-trifluoromethyl-[1,2,4]oxadiazol-3-yl)-3-aza-bicyclo[3.1.0]hex-3-yl]-methanone] | 953
10 | Cc1c(C23CC2CN(C(=O)c2cc(S(C)(=O)=O)ccc2O[C@@H](C)C(F)(F)F)C3)noc1C(F)(F)F (single isomer, unassigned) [Example 164] | 28
11 | C[C@@H](Oc1ccc(S(C)(=O)=O)cc1C(=O)N1CC2CC2(c2nc(C3CC3)no2)C1)C(F)(F)F (mixture of isomers) [Example 145, [1-(3-Cyclopropyl-[1,2,4]oxadiazol-5-yl)-3-aza-bicyclo[3.1.0]hex-3-yl]-[5-methanesulfonyl-2-(2,2,2-trifluoro-1-methyl-ethoxy)-phenyl]-methanone] | 7
12 | Cc1nc(C23CC2CN(C(=O)c2cc(S(C)(=O)=O)ccc2O[C@@H](C)C(F)(F)F)C3)no1 (single isomer, unassigned) [Example 8, [5-Methanesulfonyl-2-(2,2,2-trifluoro-1-methyl-ethoxy)-phenyl]-[1-(5-methyl-[1,2,4]oxadiazol-3-yl)-3-aza-bicyclo[3.1.0]hex-3-yl]-methanone] | 474
13 | Cc1c(C23CC2CN(C(=O)c2cc(S(C)(=O)=O)ccc2O[C@H](C)C(F)(F)F)C3)noc1C(F)(F)F (single isomer, unassigned) [Example 161] | 9
14 | C[C@@H](Oc1ccc(S(C)(=O)=O)cc1C(=O)N1CC2CC2(c2noc(C3CC3)n2)C1)C(F)(F)F (single isomer, unassigned) [Example 44, [1-(5-Cyclopropyl-[1,2,4]oxadiazol-3-yl)-3-aza-bicyclo[3.1.0]hex-3-yl]-[5-methanesulfonyl-2-(2,2,2-trifluoro-1-methyl-ethoxy)-phenyl]-methanone] | 397
15 | C[C@H](Oc1ccc(-c2ncco2)cc1C(=O)N1CC2CC2(c2noc(C(F)(F)F)n2)C1)C(F)(F)F (mixture of isomers) [Example 100, [5-Oxazol-2-yl-2-(2,2,2-trifluoro-1-methyl-ethoxy)-phenyl]-[1-(5-trifluoromethyl-[1,2,4]oxadiazol-3-yl)-3-aza-bicyclo[3.1.0]hex-3-yl]-methanone] | 916
16 | C[C@H](Oc1ccc(S(C)(=O)=O)cc1C(=O)N1CC2CC2(c2noc(C(F)(F)F)n2)C1)C(F)(F)F (single isomer, unassigned) [Example 2, [5-Methanesulfonyl-2-(2,2,2-trifluoro-1-methyl-ethoxy)-phenyl]-[1-(5-trifluoromethyl-[1,2,4]oxadiazol-3-yl)-3-aza-bicyclo[3.1.0]hex-3-yl]-methanone] | 18
17 | C[C@H](Oc1ccc(S(C)(=O)=O)cc1C(=O)N1CC2CC2(c2ncc(C(F)(F)F)o2)C1)C(F)(F)F (single isomer, unassigned) [Example 133, [5-Methanesulfonyl-2-(2,2,2-trifluoro-1-methyl-ethoxy)-phenyl]-[1-(5-trifluoromethyl-oxazol-2-yl)-3-aza-bicyclo[3.1.0]hex-3-yl]-methanone] | 403
18 | C[C@H](Oc1ccc(S(C)(=O)=O)cc1C(=O)N1CC2CC2(c2nc(C3(C(F)(F)F)CC3)no2)C1)C(F)(F)F (mixture of isomers) [Example 155, [5-Methanesulfonyl-2-(2,2,2-trifluoro-1-methyl-ethoxy)-phenyl]-{1-[3-(1-trifluoromethyl-cyclopropyl)-[1,2,4]oxadiazol-5-yl]-3-aza-bicyclo[3.1.0]hex-3-yl}-methanone] | 36
